Source: patent US20090092631A1, “GLYCOSYLATED SPECIFICITY EXCHANGERS THAT INDUCE AN ANTIBODY DEPENDENT CELLULAR CYTOTOXICITY (ADCC) RESPONSE” (priority 2007, published 2009)
Ends that are not written are not given here.

Key:
HIV-1 IIIB = experiment: Neutralization assay (plaque-forming units/syncytia) in U87 cells expressing CD4 and co-receptor; assay type: cell-based
Description: Once it had been determined that the glycosylated specificity exchangers appreciably bound gp120 and human antibody, the antiviral activity of the glycosylated specificity exchangers was evaluated using a neutralization assay that is recognized in the art to reasonably predict the therapeutic efficacy of an HIV vaccine. (See Y. Shi et al., “A new cell line-based neutralization assay for primary HIV type 1 isolates,” AIDS Res Hum Retroviruses 18:957-967 (2002), herein expressly incorporated by reference in its entirety). By this approach, HIV infection of U87 cells that express CD4 and one of the major co-receptors (either CXCR4 or CCR5) were challenged with the glycosylated specificity exchangers and human serum during competition with the CD4 receptor. The infected cells form syncytia, that is, plaques, that were stained and enumerated by light microscopy. Neutralization was then determined by the ability of human serum and glycosylated specificity exchanger to reduce the number of plaque-forming units (PFU) relative to controls.
In brief, the U87 cells were seeded onto a 48 well plate at a concentration of 100,000 cell/well 1 day prior infection with HIV-1 IIIB. On the day of infection, glycosylated specificity exchangers (Seq. ID. Nos. 4-9), human serum and virus stock were diluted in culture medium and incubated in a separate 48 well plate, to a final dilution of 1:10/1:20 for the serum and an appropriate concentration of the virus, according to the titration. The glycosylated specificity exchangers were analyzed at different concentrations to determine the minimal amount required for antiviral activity. The glycosylated specificity exchanger-serum-virus mixture was kept at 37° C. for 1 hr. Then, two hundred microliters of each dilution was distributed into wells containing the U87/CD4 cells. The experiment was performed in quadruplicate in the same plate and in five separate plates.
Controls for the assay included glycosylated specificity exchanger without the coupled sugar, the glycosylated specificity exchanger (coupled with the sugar) and a 1:10/1:20 dilution of heat inactivated human serum, cells and medium only, and cells and medium and serum. […]

HIV IIIB virus [1] = experiment: Syncytia inhibition (plaque) assay on U87 CD4+-CXCR4+ cells; assay type: cell-based, HIV-1; conditions: for neutralization values (ranking): non-inactivated human sera (FIGS. 12H and 12I); for neutralization (comparison among glycopeptides): plaque assay U87, single round TZMbl and H9 infectivity assays, HIV IIIB, inactivated human serum
Description: The CD4 glycopeptides were studied for inhibition of cell to cell interactions in a plaque assay system using U87 cells (FIG. 7), in a single round infectivity assay with TZMbl cells (FIG. 7) and in an infectivity assay with H9 cells, wherein multiple rounds of replication were allowed (FIG. 8). Infectivity was performed with the HIV IIIB virus and inactivated human serum from healthy individuals was used as the source of the anti-gal antibody.
Neutralization was tested based on the prevention of syncytia formation by HIV-1 infection of adherent U87 glioma cells expressing the CD4 receptor and the CXCR4 co-receptor, previously described by Shi Y, et al., (2002) A new cell line-based neutralization assay for primary HIV type 1 isolates. AIDS Res Hum Retroviruses 18:957-967, herein expressly incorporated by reference in its entirety.
Cells were seeded into 48 well plates (Costar, Corning USA) at a concentration of 10^5 cell/well one day prior to infection. On the day of infection, glycopeptides, pooled AB type human serum from healthy individuals (Cambrex, USA) and previously titrated HIV IIIB virus were diluted in culture medium and pre-incubated in a separate 48 well plate for 1 h at 37° C. The peptides were analyzed at different concentrations to evaluate the minimum dose required for antiviral activity. Two hundred microliters of each dilution were distributed into triplicate wells containing the U87 CD4^+-CXCR4^+ cells and incubated for 12 h after which medium was removed and 1 ml of D-MEM medium was added to the cells. The positive controls were infected cells in the presence or absence of human serum and negative controls consisted of uninfected cells in the presence or absence of human serum and an irrelevant glycosylated peptide. At day five the cells were fixated with methanol-acetone (1:1). The number of plaque-forming units was determined after haematoxylin staining and the index was extracted from the ratio between infected cells treated with the peptides and human serum and cells infected with the virus in the presence of human serum. Each peptide was tested at four different concentrations, in quadruplicates in the same plate and in five different plates, i.e. each peptide was run in twenty wells at each concentration.

HIV IIIB virus [2] = experiment: Multiple round infectivity assay in H9 cells (RT activity, day 11); assay type: cell-based, HIV-1; conditions: 1 μg/ml glycopeptide, 5 or 10% human serum
Description: An infectivity assay was performed on H9 cells that were infected with HIV IIIB virus. All peptides were run at four different dilutions and each dilution was run in quadruplicates together with a 10% or 5% of pooled AB human serum from healthy individuals. (Cambrex, USA).
H9 cells were infected with 100 TCID50 of the HIV IIIB virus and incubated for 1.5 h at 37° C. after which they were centrifuged, the supernatant was discarded and the cells were re-suspended in RPMI medium for a final concentration of 200,000 cells/ml.
One 48 well plate was run per glycopeptide, containing the four dilutions of the glycopeptide and the four replicates of each one of them, plus a positive control of infected cells (with and without human serum) and a negative control of non-infected H9 cells. Each well contained 500 μl of the infected cells +500 μl of the diluted peptide and the chosen dilution of the human serum.
Plates were incubated at 37° C.+5% CO2 until day 7 when 500 μl of supernatant were collected from each well and stored at −20 degrees until further analysis. An additional 500 μl of fresh RPMI medium with the appropriate dilution of the peptide plus the human serum were added to the wells and incubated at 37 degrees until day 11 when the supernatant was measured for Reverse Transcriptase (RT) activity (Cavidi, Sweden) according to the manufacturer's protocol.

[3] = CD4 peptide Alone (without coupled sugar), 0.1 ug/ml, 0.3 equals 30% inhibition
[4] = CD4 peptide Alone (without coupled sugar), 1 ug/ml, 0.3 equals 30% inhibition
[5] = CD4 peptide Alone (without coupled sugar), 10 ug/ml, 0.3 equals 30% inhibition of HIV replication (syncytia formation)
[6] = Glycosylated Sp. Exchanger & 1:10 dilution human serum, 0.1 ug/ml, 0.3 equals 30% inhibition
[7] = Glycosylated Sp. Exchanger & 1:10 dilution human serum, 1 ug/ml, 0.3 equals 30% inhibition
[8] = Glycosylated Sp. Exchanger & 1:10 dilution human serum, 10 ug/ml, 0.3 equals 30% inhibition
[9] = Glycosylated Sp. Exchanger & 1:20 dilution human serum, 0.1 ug/ml, 0.3 equals 30% inhibition
[10] = Glycosylated Sp. Exchanger & 1:20 dilution human serum, 1 ug/ml, 0.3 equals 30% inhibition
[11] = Glycosylated Sp. Exchanger & 1:20 dilution human serum, 10 ug/ml, 0.3 equals 30% inhibition
[12] = Glycosylated Sp. Exchanger, 0.1 ug/ml, 0.3 equals 30% inhibition
[13] = Glycosylated Sp. Exchanger, 1 ug/ml, 0.3 equals 30% inhibition
[14] = Glycosylated Sp. Exchanger, 10 ug/ml, 0.3 equals 30% inhibition

Substance	neutralization of the virus (HIV-1 IIIB; [3])	neutralization of the virus (HIV-1 IIIB; [4])	neutralization of the virus (HIV-1 IIIB; [5])	neutralization of the virus (HIV-1 IIIB; [6])	neutralization of the virus (HIV-1 IIIB; [7])	neutralization of the virus (HIV-1 IIIB; [8])	neutralization of the virus (HIV-1 IIIB; [9])	neutralization of the virus (HIV-1 IIIB; [10])	neutralization of the virus (HIV-1 IIIB; [11])	neutralization of the virus (HIV-1 IIIB; [12])	neutralization of the virus (HIV-1 IIIB; [13])	neutralization of the virus (HIV-1 IIIB; [14])	neutralization values (ranking) (HIV IIIB virus [1])	neutralization (comparison among glycopeptides) (HIV IIIB virus [1])	neutralization (HIV IIIB virus [2])	neutralization of the virus (HIV-1 IIIB; Glycosylated Sp. Exchanger & 1:10 dilution human serum, 100 ug/ml, 0.3 equals 30% inhibition)	neutralization of the virus (HIV-1 IIIB; Glycosylated Sp. Exchanger & 1:20 dilution human serum, 100 ug/ml, 0.3 equals 30% inhibition)	neutralization of the virus (HIV-1 IIIB; Glycosylated Sp. Exchanger, 100 ug/ml, 0.3 equals 30% inhibition)
QGSFLTKGPSKLNDR ({Gal‑α1‑3Gal‑β glyco‑aspartic acid}-QGSFLTKGPSKLNDR) [Seq. Id. No. 7, CD4 receptor peptide with Gal-α1-3Gal-β glyco-aspartic acid linked to its N-terminal end]	neg (Neg = negative <0.30)	neg (Neg = negative <0.30)	neg (Neg = negative <0.30)	0.48	0.48	0.55	0.47	0.47	0.48	neg (Neg = negative <0.30)	neg (Neg = negative <0.30)	neg (Neg = negative <0.30)	Highest neutralization values	greater neutralization	90%	–	–	–
6 (KILGNQGSFLTKGPS; Homo sapien) [compound 6]	neg (Neg = negative <0.30)	neg (Neg = negative <0.30)	neg (Neg = negative <0.30)	0.50	0.42	0.60	neg (Neg = negative <0.30)	neg (Neg = negative <0.30)	neg (Neg = negative <0.30)	neg (Neg = negative <0.30)	–	–	–	–	–	–	–	–
8 (TKGPSKLNDRADSRR; Homo sapien) [compound 8]	–	–	–	0.778	0.821	0.83	0.701	0.667	0.642	–	0.548	0.552	–	–	–	–	–	–
9 (KLNDRADSRRSLWDQ; Homo sapien) [compound 9]	–	–	–	0.76	0.75	0.78	0.71	0.75	0.74	neg (Neg = negative <0.30)	neg (Neg = negative <0.30)	neg (Neg = negative <0.30)	–	–	–	0.75	0.734	neg (Neg = negative <0.30)
TKGPSKLNDRADSRR ({Gal‑α1‑3Gal‑β glyco‑aspartic acid}-TKGPSKLNDRADSRR) [Seq. Id. No. 8, CD4 receptor peptide with Gal-α1-3Gal-β glyco-aspartic acid linked to its N-terminal end]	neg (Neg = negative <0.30)	neg (Neg = negative <0.30)	neg (Neg = negative <0.30)	neg (Neg = negative <0.30)	0.39	0.49	neg (Neg = negative <0.30)	0.32	0.429	neg (Neg = negative <0.30)	neg (Neg = negative <0.30)	neg (Neg = negative <0.30)	Highest neutralization values	greater neutralization	90%	–	–	–
KILGNQGSFLTKGPS ({Gal‑α1‑3Gal‑β glyco‑aspartic acid}-KILGNQGSFLTKGPS) [Seq. Id. No. 6, CD4 receptor peptide with Gal-α1-3Gal-β glyco-aspartic acid linked to its N-terminal end]	–	–	–	–	–	–	–	–	–	–	–	–	Highest neutralization values	greater neutralization	90%	–	–	–
7 (QGSFLTKGPSKLNDR; Homo sapien) [compound 7]	neg (Neg = negative <0.30)	neg (Neg = negative <0.30)	neg (Neg = negative <0.30)	0.439	0.461	0.454	neg (Neg = negative <0.30)	neg (Neg = negative <0.30)	neg (Neg = negative <0.30)	neg (Neg = negative <0.30)	neg (Neg = negative <0.30)	neg (Neg = negative <0.30)	–	–	–	–	–	–
